Patent publication US20080044390A1, “Methods and compositions for the treatment of neurodegenerative disorders” (priority 2006, published 2008)
*1 amine or outer side, *2 acyl side, *3 side chain or, on linkers, in order; H or OH if unused. Where a SMILES comes first, the peptide text is derived from it. [ ]: non-standard residue; d: D form. The star is where a group is joined. hPhe = N[CH](CCc1ccccc1)C(=O)O; Morpholide = C1CN(*)CCO1; CO = O=C([*:1])[*:2]; CH2F = FC*

How the values were obtained:
PC12/HttN90Q103 cells [1] = assay: CellTiter-Blue assay, rescue of HttN90Q103-induced cell death; assay type: cell-based, rat; conditions: CellTiter-Blue, single agent; for EC50: sigmoidal fit of 12-step dose response, read-out: EC50
Excerpt: (§1) In this stable PC12 line (PC12/HttN90Q103), transcription of the Htt transgene is driven by an ecdysone-regulated promoter such that the expression of HttN90Q103 can be turned on or off by the addition or removal of the non-steroidal ecdysone analog tebufenozide (teb).
(§2) Using the engineered PC12/HttN90Q103 cell line together with Perkin Elmer's ATPlite™ assay kit or CellTiter-Blue™ assay, a high throughput assay to screen small molecules for their ability to prevent mutant Htt exon 1-induced cell death was developed and optimized.
(§3) The following formulas were used to calculate mutant Htt-induced cytotoxicity and test compound rescue: % killing=[(un-induced−induced-DMSO treated)/un-induced]×100 % rescue=[(drug treated−induced-DMSO treated)/(un-induced−induced-DMSO treated)]×100
For single-agent ranking, the assay was performed in 384-well plates to obtain duplicate dose response curves in 12-step dilutions with a dosing ratio f=2 over 3 orders of magnitude.
The uncertainty of each fitted parameter was estimated from the range over which the change in reduced chi-squared was less than one, or less than minimum reduced chi-squared if that minimum exceeded one, to allow for underestimated σI errors.
(§4) Day 1—Add Compounds 4 hours post-induction • 1) Remove compound plates from dessicator. • 2) Using the PlateMate, prepare dilution plate with 100 μL per well of the complete cell medium at room temperature in clear untreated 384-well plates. • 3) Using the MiniTrak, make compound dilution plates: 1 μL from each well of stock plates into 100 μL of media in the dilution plate for a 1:100 dilution (10× stock in media). • 4) Using the MiniTrak, add 4.5 μL of the diluted stock to each well of cells in assay plates. • 5) Make positive control solution: dilute 20 mM stock of BOC-D-FMK in media for a 10× stock. • 6) Manually add 4.5 μL positive control to C1-N1. • 7) Incubate plates at 37° C. for three days. • (for ranking combinations, steps 5 and 6 are omitted as there is positive control on the compound plates)
Day 4—CellTiter-Blue™ assay • 1) Make solution of 5% CellTiter-Blue™ in Q103 media. • 2) Using the Multidrop, add 40 μL of 5% CellTiter-Blue™ solution to each well of the assay plates. • 3) Incubate plates with CellTiter-Blue™ at 37° C.

PC12/HttN90Q103 cells [2] = assay: ATPlite assay, rescue of HttN90Q103-induced cell death; assay type: cell-based, rat
Excerpt: as §1, §2, §3
For single-agent ranking, the assay was performed in 384-well plates to obtain duplicate dose response curves in 12-step dilutions with a dosing ratio f=2 over 3 orders of magnitude. […]
as §4
Day 4—Perform ATPlite™ Assay • 1) Take plates out of the incubator. • 2) Using the PlateMate, add 40 μL of ATPlite™ 1-step solution (Perkin Elmer) to each well of the assay plates. • 3) Wait ten minutes to allow plates to dark-adapt. • 4) Read luminescence intensity in Wallac plate reader using […]

[3] = ATPlite, single agent, 250 nM tebufenozide induction
[4] = ATPlite, single agent, sigmoidal fit of 12-step dose response, read-out: EC50
[5] = Rattus norvegicus, PC-12, ATPlite, single agent, 250 nM tebufenozide induction, read-out: Max Effect (% rescue)
[6] = Rattus norvegicus, PC-12, ATPlite, single agent, sigmoidal fit of 12-step dose response, read-out: EC50
[7] = Rattus norvegicus, PC-12, read-out: Max Effect (% rescue)

In the case of Oc1ccc(Cl)cc1Cc1ccccc1 [Clorophene], the Emax (PC12/HttN90Q103 cells [1]; Rattus norvegicus, PC-12, 250 nM tebufenozide induction, read-out: Max Effect (% rescue)) is reported as 30% and the EC50 (PC12/HttN90Q103 cells [1]; Rattus norvegicus, PC-12) is reported as 0.9 µM.

Maduramicin NH4 was tested, and the “Max Effect (% rescue)” value (PC12/HttN90Q103 cells [2]; [3]) was 19% and the EC50 (PC12/HttN90Q103 cells [2]; [4]) was 0.04 µM.

With Cl.NCCc1ccc(S(=O)(=O)F)cc1 [Pefabloc SC] the “Max Effect (% rescue)” value (PC12/HttN90Q103 cells [1]; 250 nM tebufenozide induction) was 34% and the EC50 (PC12/HttN90Q103 cells [1]) was 6.8 µM.

CO[C@@H]1C[C@@H](C[C@H]2CC[C@H](C)[C@H]([C@@H](C)C(=O)O)O2)O[C@]2(O[C@](C)([C@H]3CC[C@@](C)([C@@H]4O[C@@H]([C@H]5O[C@@](O)(CO)[C@H](C)C[C@@H]5C)C[C@@H]4C)O3)C[C@H]2C)[C@@H]1C [Nigericin] showed an Emax (PC12/HttN90Q103 cells [2]; [5]) of 36%.

Compound O=C1Cc2c([nH]c3ccc(Br)cc23)-c2ccccc2N1 [Kenpaullone] has an Emax (PC12/HttN90Q103 cells [2]; [5]) of 87% and an EC50 (PC12/HttN90Q103 cells [2]; [6]) of 4.7 µM.

CN1CCN(C(=O)OC2c3nccnc3C(=O)N2c2ccc(Cl)cn2)CC1 (stereo not drawn) [Zopiclone] showed an EC50 (PC12/HttN90Q103 cells [2]; Rattus norvegicus, PC-12) of 6.7 µM and an Emax (PC12/HttN90Q103 cells [2]; [7]) of 25%.

In the case of O=C(CF)C(CCc1ccccc1)NC(=O)C(Cc1ccccc1)NC(=O)N1CCOCC1 (stereo not drawn) [BML-248, N-morpholineurea-phenylalanyl-homophenylalanylfluoromethyl ketone] ({Morpholide-CO}-Phe-[hPhe]-CH2F; configuration not given here), the “Max Effect (% rescue)” value (PC12/HttN90Q103 cells [2]; [3]) is reported as 24% and the EC50 (PC12/HttN90Q103 cells [2]; [4]) is reported as 7.1 µM.

O=c1c(O)c(-c2ccc(O)c(O)c2)oc2cc(O)cc(O)c12 [Quercetin] gave an Emax (PC12/HttN90Q103 cells [2]; [5]) of 23% and an EC50 (PC12/HttN90Q103 cells [2]; [6]) of 16.4 µM.

COC(=O)CC(NC(=O)OC(C)(C)C)C(=O)CF [Caspase inhibitor III (BOC-D-fmk)] was tested, and the “% rescue” value (PC12/HttN90Q103 cells [2]; 20 μM, positive control, 72 hours following tebufenozide induction) was “More than 50%”, the “Max Effect (% rescue)” value (PC12/HttN90Q103 cells [2]; [3]) was 119% and the EC50 (PC12/HttN90Q103 cells [2]; [4]) was 3.9 µM.

With O=C(NO)c1ccccc1 [Benzohydroxamic acid] the Emax (PC12/HttN90Q103 cells [2]; [5]) was 15% and the EC50 (PC12/HttN90Q103 cells [2]; [6]) was 6.9 µM.

In the case of O=c1c(O)c(-c2ccc(O)cc2)oc2cc(O)cc(O)c12 [Kaempferol], the Emax (PC12/HttN90Q103 cells [2]; [5]) is reported as 15% and the EC50 (PC12/HttN90Q103 cells [2]; [6]) is reported as 12.2 µM.

With Nc1c2c(nc3ccccc13)CCCC2 [Tacrine] the Emax (PC12/HttN90Q103 cells [2]; [5]) was 15% and the EC50 (PC12/HttN90Q103 cells [2]; [6]) was 39.6 µM.

In the case of N[C@@H]1C[C@H]1c1ccccc1 (racemic) [Tranylcypromine], the “Max Effect (% rescue)” value (PC12/HttN90Q103 cells [2]; [3]) is reported as 16% and the EC50 (PC12/HttN90Q103 cells [2]; [4]) is reported as 2.2 µM.

Compound OC[C@H]1O[C@@H](n2cnc3cc(Cl)c(Cl)cc32)[C@H](O)[C@@H]1O [5,6-dichloro-1-β-D-ribofuranosylbenzimidazole] has an EC50 (PC12/HttN90Q103 cells [2]; Rattus norvegicus, PC-12) of 5.1 µM and an Emax (PC12/HttN90Q103 cells [2]; [7]) of 26%.

With CC[C@@H](C(=O)O)[C@@H]1O[C@@H]([C@@H](C)[C@H](O)[C@H](C)C(=O)[C@H](CC)[C@H]2O[C@]3(C=C[C@@H](O)[C@]4(CC[C@@](C)([C@H]5CC[C@](O)(CC)[C@H](C)O5)O4)O3)[C@H](C)C[C@@H]2C)[C@@H](C)C[C@@H]1C [Narasin] the Emax (PC12/HttN90Q103 cells [2]; [5]) was 15% and the EC50 (PC12/HttN90Q103 cells [2]; [6]) was 0.1 µM.

With NC(=O)NO [Hydroxyurea] the Emax (PC12/HttN90Q103 cells [2]; [5]) was 22% and the EC50 (PC12/HttN90Q103 cells [2]; [6]) was 7.5 µM.

In the case of O=S(=O)([O-])[O-].[O]=[V+2] [Vanadyl], the “Max Effect (% rescue)” value (PC12/HttN90Q103 cells [2]; [3]) is reported as 19% and the EC50 (PC12/HttN90Q103 cells [2]; [4]) is reported as 0.6 µM.

CC(C)c1ccc2oc3nc(N)c(C(=O)O)cc3c(=O)c2c1 [Amlexanox] gave an EC50 (PC12/HttN90Q103 cells [2]; Rattus norvegicus, PC-12) of 5.7 µM and an Emax (PC12/HttN90Q103 cells [2]; [7]) of 18%.

For CCN(CCO)CCCC(C)Nc1ccnc2cc(Cl)ccc12 (stereo not drawn) [Hydroxychloroquine], the Emax (PC12/HttN90Q103 cells [2]; [5]) was 29% and the EC50 (PC12/HttN90Q103 cells [2]; [6]) was 5.2 µM.

For CCCC(CCC)C(=O)O [Divalproex], the Emax (PC12/HttN90Q103 cells [2]; [5]) was 19% and the EC50 (PC12/HttN90Q103 cells [2]; [6]) was 15.2 µM.

In the case of O=C1Cc2c([nH]c3ccc([N+](=O)[O-])cc23)-c2ccccc2N1 [Alsterpaullone], the Emax (PC12/HttN90Q103 cells [2]; [5]) is reported as 64% and the EC50 (PC12/HttN90Q103 cells [2]; [6]) is reported as 1.8 µM.

In the case of CC(C)[C@H](NC(=O)c1ccc2ccccc2n1)C(=O)N[C@@H](CC(=O)O)C(=O)COc1c(F)cccc1F [Q-VD-OPH], the “Max Effect (% rescue)” value (PC12/HttN90Q103 cells [2]; [3]) is reported as 72% and the EC50 (PC12/HttN90Q103 cells [2]; [4]) is reported as 0.6 µM.

CCCC(=O)Nc1ncnc2c1ncn2[C@@H]1O[C@@H]2COP(=O)(O)O[C@H]2[C@H]1OC(=O)CCC [Bucladesine] showed an Emax (PC12/HttN90Q103 cells [2]; [5]) of 18% and an EC50 (PC12/HttN90Q103 cells [2]; [6]) of 19.6 µM.

For CC1CNCCN1S(=O)(=O)c1cccc2cnccc12 (stereo not drawn) [1-(5-isoquinolinesulfonyl)-2-methylpiperazine], the Emax (PC12/HttN90Q103 cells [2]; [5]) was 28% and the EC50 (PC12/HttN90Q103 cells [2]; [6]) was 15.5 µM.
